Experimental data published in patent publication US10730849B2, “Benzo[b]thiophene compounds as STING agonists” (MERCK SHARP & DOHME CORP., priority 2016, dated 2020).

Tests used:
full-length HAQ STING = full-length HAQ STING (Homo sapiens (Human), UniProt Q86WV6, G230A/H232R/R293Q/R71H); assay: 3H-cGAMP filtration binding assay (HAQ STING); conditions: competition with tritiated cGAMP, HAQ STING membrane
Description: The ability of compounds to bind STING is quantified by the ability to compete with tritiated cGAMP ligand for human STING receptor membrane using a radioactive filter-binding assay. The binding assay employs STING receptor obtained from Hi-Five cell membranes overexpressing full-length HAQ STING prepared in-house and tritiated cGAMP ligand also purified in-house.
(§1) The ability of compounds to bind STING is quantified by their ability to compete with tritiated cGAMP ligand for human STING receptor membrane using a radioactive filter-binding assay. The binding assay employs STING receptor obtained from Trichoplusia ni cell membranes (T. ni; Expression Systems, cat #94-002F, www.exressionsystems.com) overexpressing full-length HAQ STING and tritiated cGAMP ligand.
The basic HAQ STING filtration assay protocol is as follows:
Compound and membrane then preincubated for 60 min at RT to allow compound binding to equilibrate. Following equilibration, 8 nM of [^3H]c-GAMP ligand was prepared by diluting into assay buffer, and 50 uL of this working stock was then manually added to each well of the assay plate. […] The filter plates were then dried at 55° C. for 30 min using a pressurized oven before 30 uL of ULTIMA GOLD F scintillate was added to each well. Tritium levels for each reaction well were then measured using a PerkinElmer TopCount plate reader.
(§2) After normalization to controls, the percent activity for each compound concentration was calculated by measuring the amount of remaining radioactivity. The plot of percent activity versus the log of compound concentration was fit with a 4-parameter dose response equation to calculate EC50 values.

THP1 cells = assay: IFN-β secretion in THP1 cell culture (5 h); assay type: cell-based, human; conditions: relative to 30 uM cGAMP
Protocol: The ability of compounds to stimulate the secretion of interferon-beta from THP1 cells was measured using a human IFN-3 AlphaLISA kit (Perkin Elmer, Cat. No. AL265F). The basic protocol is as follows:
The cell viability and count was ascertained using a Beckman Coulter V-Cell XR cell counter. The cells suspension was centrifuged at 200×g for 5 min at RT. Cells were resuspended to a density of 0.8×10^6/mL in 37° C. assay medium. Subsequent liquid transfers were performed using either a Matrix electronic multichannel pipette or an Agilent Bravo Automated Liquid Handling Platform.
The assay was started by dispensing 40 μL of the previously prepared cell suspension into the wells of the plate containing compounds. After 5 h incubation at 37° C., 5% CO2 in a humidified atmosphere, the plate of cells and compounds was centrifuged at 200×g for 5 min at RT. […] To these supernatant-containing wells was added 10 μL of 5× Anti-Analyte Acceptor beads ([…] of AlphaLISA HiBlock Buffer) and incubated for 30 min at RT while shaking on an orbital plate shaker. To each well was added 10 μL of 5× Biotinylated Antibody Anti-analyte (5 nM in AlphaLISA HiBlock Buffer) and incubated on an orbital plate shaker for 60 min at RT or overnight at 4° C. To each well was added 25 μL of 2× SA-Donor beads ([…] in AlphaLISA HiBlock Buffer) and incubated for 30-45 min at RT in the dark while shaking on an orbital plate shaker. The plate was then read on a Perkin Elmer Envision (λex=680 nm, […]). The percent effect of the AlphaLISA signal at each compound concentration was calculated based on 30 uM cGAMP positive controls and 0.3% DMSO negative controls. The plot of percent effect versus the log of compound concentration was fit with a 4-parameter concentration response equation to calculate EC50 values.
Compounds of the disclosure were evaluated for IFN-3 secretion in THP1 cell culture as described above.

full-length WT STING = full-length WT STING (Homo sapiens (Human), UniProt Q86WV6, H232R); assay: 3H-cGAMP filtration binding assay (WT STING); conditions: for EC50: competition with tritiated cGAMP, WT STING membrane; for inhibition at 20 µM: WT STING, compound at 20 uM
Description: as §1, with “www.expressionsystems.com)” for “www.exressionsystems.com)”, “WT” for “HAQ”
The basic WT STING filtration assay protocol is as follows:
The filter plates were then dried at 55° C. for 30 min using a pressurized VWR oven before 30 uL of ULTIMA GOLD F scintillate was added to each well. Tritium levels for each reaction well were then measured using a PerkinElmer TopCount plate reader.
as §2

full-length HAQ STING, sequence (Q86WV6 other isoform, or with tags, fused parts or gaps, stated change not applied): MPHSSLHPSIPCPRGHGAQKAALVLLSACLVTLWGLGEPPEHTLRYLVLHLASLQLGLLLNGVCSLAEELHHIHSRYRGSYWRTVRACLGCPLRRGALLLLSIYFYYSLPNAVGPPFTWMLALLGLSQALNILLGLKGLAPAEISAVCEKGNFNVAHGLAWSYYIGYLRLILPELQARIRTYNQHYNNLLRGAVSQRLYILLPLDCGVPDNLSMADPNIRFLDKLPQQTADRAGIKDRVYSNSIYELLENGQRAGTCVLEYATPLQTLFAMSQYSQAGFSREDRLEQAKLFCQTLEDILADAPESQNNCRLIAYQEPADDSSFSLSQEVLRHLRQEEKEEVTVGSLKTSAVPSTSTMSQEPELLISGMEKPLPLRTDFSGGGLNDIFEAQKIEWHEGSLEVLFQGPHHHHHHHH
full-length WT STING, sequence (Q86WV6 other isoform, or with tags, fused parts or gaps H232R (already in the parent)): as the sequence (Q86WV6 other isoform, or with tags, fused parts or gaps, stated change not applied) above, with H71R, A230G, Q293R counted along it

Row | EC50 (full-length HAQ STING) [µM] | EC50 (full-length WT STING) [µM] | inhibition at 20 µM (full-length WT STING) [%] | SMILES | % Effect at 30 μM relative to 2’3’-cGAMP (THP1 cells) [%]
1 | 1.14 | – | – | COc1cc2sc(C(=O)[C@@H]3C[C@@H]3C(=O)O)cc2cc1Br (single isomer, unassigned) [Example 5, 2-(5-bromo-6-methoxybenzo[b]thiophene-2-carbonyl)cyclopropane-1-carboxylic acid] | 77
2 | 0.703 | – | – | COc1cc2sc(C(=O)[C@H]3C[C@H]3C(=O)O)cc2cc1Br (single isomer, unassigned) [Example 6, 2-(5-bromo-6-methoxybenzo[b]thiophene-2-carbonyl)cyclopropane-1-carboxylic acid] | 130
3 | 3.41 | 5.17 | – | CCC(CC(=O)c1cc2cc(OC)c(OC)cc2s1)C(=O)O (centres unmarked) [Example 1, 4-(5,6-dimethoxybenzo[b]thiophen-2-yl)-2-ethyl-4-oxobutanoic acid] | 144
4 | 9.59 | 11.2 | – | COc1cc2cc(C(=O)CC(C(=O)O)C(C)C)sc2cc1OC (centres unmarked) [Example 2, 4-(5,6-Dimethoxybenzo[b]thiophen-2-yl)-2-isopropyl-4-oxobutanoic acid] | 149
5 | 10.6 | – | 41 | COc1cc2cc(C(=O)CC(C(=O)O)C3CC3)sc2cc1OC (centres unmarked) [Example 3, 2-Cyclopropyl-4-(5,6-dimethoxybenzo[b]thiophen-2-yl)-4-oxobutanoic acid] | 59
6 | 1.9 | 1.14 | – | COc1cc2cc(C(=O)C3CC3C(=O)O)sc2cc1OC (centres unmarked) [Example 4, 2-(5,6-Dimethoxybenzo[b]thiophene-2-carbonyl)cyclopropane carboxylic acid] | 34
7 | 9.34 | – | 20 | COc1cc2sc(C(=O)CCC(=O)O)cc2cc1Cl [Example 7, 4-(5-Chloro-6-methoxybenzo[b]thiophen-2-yl)-4-oxobutanoic acid] | 290
8 | 6.77 | 15.5 | – | C=Cc1cc2sc(C(=O)CCC(=O)O)cc2cc1OC [Example 8, 4-(5-Methoxy-6-vinylbenzo[b]thiophen-2-yl)-4-oxobutanoic acid] | 260
9 | 2.58 | 10.9 | – | COc1cc2cc(C(=O)CCC(=O)O)sc2cc1Br [Example 9, 4-(6-Bromo-5-methoxybenzo[b]thiophen-2-yl)-4-oxobutanoic acid] | 298
10 | 14 | – | 31 | CNc1cc2cc(C(=O)CCC(=O)O)sc2cc1OC [Example 10, 4-(6-Methoxy-5-(methylamino)benzo[b]thiophen-2-yl)-4-oxobutanoic acid] | 182
11 | 2.73 | 3.87 | – | COc1cc2cc(C(=O)C[C@H](C)C(=O)O)sc2cc1OC [Example 11, (S)-4-(5,6-Dimethoxybenzo[b]thiophen-2-yl)-2-methyl-4-oxobutanoic acid] | 132
12 | – | – | – | COc1cc2cc(C(=O)CCC(=O)OC(C)(C)C)sc2cc1OC [Example 12, tert-butyl 4-(5,6-dimethoxybenzo[b]thiophen-2-yl)-4-oxobutanoate] | 16
13 | 1.38 | 2.08 | – | COc1cc2sc(C(=O)C[C@H](C)C(=O)O)cc2c(F)c1OC [Example 13, (S)-4-(4-fluoro-5,6-dimethoxybenzo[b]thiophen-2-yl)-2-methyl-4-oxobutanoic acid] | 228
14 | – | – | – | COc1cc2sc(C(=O)CCC(=O)O)cc2c(F)c1OC [Example 14, 4-(4-fluoro-5,6-dimethoxybenzo[b]thiophen-2-yl)-4-oxobutanoic acid] | 394
15 | 0.894 | 0.894 | – | COc1cc2cc(C(=O)C[C@H](C)C(=O)O)sc2cc1Br [Example 15, (S)-4-(6-bromo-5-methoxybenzo[b]thiophen-2-yl)-2-methyl-4-oxobutanoic acid] | 115
16 | 1.72 | 2.48 | – | COc1cc2cc(C(=O)CCC(=O)O)sc2cc1OC [Example 16, 4-(5,6-dimethoxybenzo[b]thiophen-2-yl)-4-oxobutanoic acid] | 129
17 | 5.61 | – | – | CNc1cc2sc(C(=O)C[C@H](C)C(=O)O)cc2cc1OC [Example 37, (S)-4-(5-methoxy-6-(methylamino)benzo[b]thiophen-2-yl)-2-methyl-4-oxobutanoic acid] | 42
18 | 1.93 | – | – | COc1cc2cc(C(=O)C[C@H](C)C(=O)O)sc2cc1SC [Example 38, (S)-4-(5-methoxy-6-(methylthio)benzo[b]thiophen-2-yl)-2-methyl-4-oxobutanoic acid] | 154
19 | 0.759 | – | – | COc1cc2cc(C(=O)C[C@H](C)C(=O)O[C@H]3CSSC[C@@H]3O)sc2cc1OC [Example 42, (S)-(4R,5R)-5-hydroxy-1,2-dithian-4-yl 4-(5,6-dimethoxybenzo[b]thiophen-2-yl)-2-methyl-4-oxobutanoate] | 6
20 | 15.7 | – | – | CCCc1cc2sc(C(=O)C[C@H](C)C(=O)O)cc2cc1OC [Example 44, (2S)-4-(5-methoxy-6-propyl-1-benzothiophen-2-yl)-2-methyl-4-oxobutanoic acid] | 20
21 | 14.7 | – | – | COc1cc2cc(C(=O)CCC(=O)O)sc2cc1CCF [Example 45, 4-[6-(2-fluoroethyl)-5-methoxy-1-benzothiophen-2-yl]-4-oxobutanoic acid] | 104
22 | 5.06 | – | – | CCCc1cc2cc(C(=O)C[C@H](C)C(=O)O)sc2cc1OC [Example 47, (2S)-4-(6-methoxy-5-propyl-1-benzothiophen-2-yl)-2-methyl-4-oxobutanoic acid] | 90
23 | 2.72 | – | – | CCCC(CC(=O)c1cc2cc(OC)c(OC)cc2s1)C(=O)O (centres unmarked) [Example 49, 2-(2-(5,6-dimethoxybenzo[b]thiophen-2-yl)-2-oxoethyl)pentanoic acid] | 111
24 | 0.531 | – | – | COc1cc2sc(C(=O)C[C@H](C)C(=O)O)cc2c2nc(C)oc12 [Example 54, (S)-4-(4-methoxy-2-methylthieno[2′,3′:5,6]benzo[1,2-d]oxazol-7-yl)-2-methyl-4-oxobutanoic acid] | 66

Row | SMILES | EC50 (full-length HAQ STING) [µM] | EC50 (full-length WT STING) [µM] | inhibition at 20 µM (full-length WT STING) [%] | % Effect at 30 μM relative to 2’3’-cGAMP (THP1 cells) [%]
25 | C=Cc1cc2cc(C(=O)[C@@H]3C[C@@H]3C(=O)O)sc2cc1OC [Example 39, (1S,2R)-2-(6-methoxy-5-vinylbenzo[b]thiophene-2-carbonyl)cyclopropane-1-carboxylic acid] | 1.15 | – | – | 193
26 | COc1cc2sc(C(=O)C3CC3C(=O)O)cc2cc1SC (centres unmarked) [Example 40, 2-(6-methoxy-5-(methylthio)benzo[b]thiophene-2-carbonyl)cyclopropane-1-carboxylic acid] | 3.94 | – | – | 93
